Measured values as given in patent publication EP4755887A1, “POLYCYCLIC FUSED-RING BTK DEGRADATION AGENT AND USE THEREOF IN MEDICINE” (Haisco Pharmaceutical Group Co., Ltd., priority 2023, dated 2025).
Like-named read-outs stand apart in the source and are kept apart here.

Experiments:
BTK = BTK (Homo sapiens, UniProt Q06187); test: Detection of BTK degradation in Mino cells; type: cell-based; conditions: read-out: DC50 values for BTK degradation in Mino cells
[1] = Pharmacokinetic test in rats; type: in vivo; conditions: male, SD, rat, plasma, po, i.g. (10 mg/kg)
Procedure: Experimental objective: In this experiment, a single dose of the test compound was administered to SD rats via intravenous administration and intragastric gavage, and the concentration of the test compound in plasma of the rats was measured to evaluate the pharmacokinetic profile of the test compound in the rats.
Experimental animals: Male SD rats, 200-220 g, 6-8 weeks old, 6 rats/compound, purchased from Chengdu Ddossy Experimental Animals Co., Ltd.
Experimental method: On the day of the experiment, 6 SD rats were randomly grouped according to their body weights. The animals were fasted with water available for 12 to 14 h one day before the administration, and were fed 4 h after the administration.
Sampling: Before and after the administration, 0.06-0.15 mL of blood was taken from the orbits under isoflurane anaesthesia, and placed in an EDTAK2 centrifuge tube. Centrifugation was carried out at 5000 rpm at 4°C for 10 min, and the plasma was collected.
The plasma collection time points for PO groups were 0, 5 min, 15 min, 30 min, 1 h, 2 h, 4 h, 7 h, 24 h, and 48 h.
The plasma collection time points for IV groups were 0, 5 min, 15 min, 30 min, 1 h, 2 h, 4 h, 7 h, and 24 h.
Before analysis and detection, all samples were stored at -60°C. The samples were analysed quantitatively by LC-MS/MS.

Caco2 permeability test = type: in vitro ADME; conditions: human, Caco-2 monolayer, pH 7.4
Procedure: In the experiment, a monolayer of Caco-2 cells was used, and incubated in triplicate in a 96-well Transwell plate. A transport buffer solution (HBSS, 10 mM HEPES, pH 7.4 ± 0.05) containing the compound of the present invention (2 µM) or the control compound digoxin (10 µM), nadolol (2 µM) or metoprolol (2 µM) was added to the administration end hole on the apical side or basal side. A DMSO-containing transport buffer solution was added to the corresponding receiving end hole. After incubation for 2 hours at 37°C ± 1°C, the cell plate was removed, and an appropriate amount of samples was taken from both the apical side and basal side and transferred to a new 96-well plate. Subsequently, acetonitrile containing an internal standard was added to precipitate the protein. The samples were analysed using LC MS/MS, and the concentrations of the compound of the present invention and the control compound were determined. Concentration data were used to calculate apparent permeability coefficients for transport from the apical side to the basal side, and from the basal side to the apical side of the cell monolayer, and thus to calculate the efflux ratio. The integrity of the cell monolayer after 2 hours of incubation was evaluated by leakage of Lucifer Yellow.

TMD-8 cells = test: TMD-8 cell proliferation inhibitory activity test; type: cell-based; conditions: Homo sapiens, TMD8, 72 hours, CellTiter-Glo, read-out: IC50 values for inhibiting TMD-8 cell proliferation
Procedure: TMD-8 is a human lymphoma cell line that expresses BTK protein and is used to evaluate the efficacy of compounds. […] The cells were seeded into a 96-well culture plate (Biosharp, BS-MP-96W) at a density of 3,000 cells per well. […] Following incubation, 50 µL of a detection solution (CellTiter-Glo®, Promega, G7573) was added to each well, and the plate was uniformly mixed for 2 minutes and incubated at room temperature for 10 minutes. The chemiluminescence reading was then measured using a microplate reader (Molecular Devices, SpectraMax Paradigm). The inhibition rate of cell proliferation by the compounds was calculated according to Equation (1), where RLU compound represents the readout from the compound-treated well, RLU control represents the readout from the DMSO vehicle control well, and RLU blank represents the readout from the cell-free well. Data analysis was performed using Graphpad Prism 8.0 software. The concentration-response curve was generated by fitting the data to a four-parameter equation, and the IC50 values for the compound's inhibition of cell proliferation were calculated. Inh% = 100%−(RLUcompound−RLUblank)/(RLUcontrol−RLUblank)*100% [formula] Table 1. IC50 values for inhibiting TMD-8 cell proliferation

BTK L528W = BTK L528W (Homo sapiens, UniProt Q06187, L528W)
Chain of BTK L528W (Q06187 whole entry L528W): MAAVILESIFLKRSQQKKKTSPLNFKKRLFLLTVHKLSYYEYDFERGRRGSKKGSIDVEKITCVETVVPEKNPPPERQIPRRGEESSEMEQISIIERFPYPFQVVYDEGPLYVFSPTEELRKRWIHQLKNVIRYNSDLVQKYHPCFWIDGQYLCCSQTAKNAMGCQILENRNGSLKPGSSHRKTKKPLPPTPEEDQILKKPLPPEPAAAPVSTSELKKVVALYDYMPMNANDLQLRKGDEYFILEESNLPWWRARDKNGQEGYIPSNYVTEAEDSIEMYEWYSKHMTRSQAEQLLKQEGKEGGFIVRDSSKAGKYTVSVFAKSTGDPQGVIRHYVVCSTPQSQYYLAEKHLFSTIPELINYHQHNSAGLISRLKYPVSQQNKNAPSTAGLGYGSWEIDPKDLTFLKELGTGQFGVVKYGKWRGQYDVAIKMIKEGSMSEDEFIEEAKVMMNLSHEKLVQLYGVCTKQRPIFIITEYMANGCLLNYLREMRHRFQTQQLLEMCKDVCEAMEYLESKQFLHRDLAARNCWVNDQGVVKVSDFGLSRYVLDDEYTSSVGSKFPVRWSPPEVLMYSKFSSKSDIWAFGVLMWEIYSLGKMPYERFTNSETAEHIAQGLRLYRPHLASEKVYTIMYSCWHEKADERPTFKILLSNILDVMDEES

[2] = Mino cells, 6 hours, automated western blot
[3] = 5 nM concentration, REC-1 BTK L528W cells, 6 hours

Chain of BTK (Q06187 whole entry): as the sequence (Q06187 whole entry L528W) above, with W528L counted along it

## CN1CCN([C@@H]2CCCN(c3cnc(C(N)=O)c(Nc4ccc(N5CCC(CN6CCN7c8cc(F)c(C9CCC(=O)NC9=O)cc8CC[C@@H]7C6)C(F)(F)C5)cc4)n3)C2)C1=O (single isomer, unassigned) [Compound 27]
BTK; [2]
  DC50: < 0.01 µM

## CN1CCN([C@@H]2CCCN(c3cnc(C(N)=O)c(Nc4ccc(N5CCC(CN6CCN7c8cc(F)c(C9CCC(=O)NC9=O)cc8CC[C@@H]7C6)C(F)(F)C5)cc4)n3)C2)C1=O (single isomer, unassigned) [Compound 28]
BTK; [2]
  DC50: < 0.01 µM

## CN1CCN([C@@H]2CCCN(c3cnc(C(N)=O)c(Nc4ccc(N5CCC(CN6CCN7c8cc(F)c(C9CCC(=O)NC9=O)cc8CC[C@H]7C6)C(F)(F)C5)cc4)n3)C2)C1=O (single isomer, unassigned) [Compound 29]
BTK; [2]
  DC50: < 0.01 µM

## CN1CCN([C@@H]2CCCN(c3cnc(C(N)=O)c(Nc4ccc(N5CCC(CN6CCN7c8cc(F)c(C9CCC(=O)NC9=O)cc8CC[C@H]7C6)C(F)(F)C5)cc4)n3)C2)C1=O (single isomer, unassigned) [Compound 30]
BTK; [2]
  DC50: < 0.01 µM

## CN1CCN([C@@H]2CCCN(c3cnc(C(N)=O)c(Nc4ccc(N5CCC(CN6CCN7c8cc(F)c(C9CCC(=O)NC9=O)cc8CC[C@H]7C6)CC5)cc4)n3)C2)C1=O (some centres unmarked) [Compound 11]
[1]; Vehicle 1
  bioavailability: > 50%
  AUC(0-t): > 1000 ng·h/mL
BTK; [2]
  DC50: < 0.01 µM
Caco2 permeability test
  Papp A→B at 2 h, 2 µM: 1.75 ×10⁻⁶ cm/s
  Papp B→A at 2 h, 2 µM: 3.74 ×10⁻⁶ cm/s
  efflux ratio at 2 h, 2 µM: 2.14
TMD-8 cells
  IC50: < 0.02 µM

## CN1CCN([C@@H]2CCCN(c3cnc(C(N)=O)c(Nc4ccc(N5CCC(CN6CCN7c8cc(F)c(C9CCC(=O)NC9=O)cc8CC[C@@H]7C6)CC5)cc4)n3)C2)C1=O (some centres unmarked) [Compound 12]
BTK; [2]
  DC50: < 0.01 µM
Caco2 permeability test
  Papp A→B at 2 h, 2 µM: 1.18 ×10⁻⁶ cm/s
  Papp B→A at 2 h, 2 µM: 4.71 ×10⁻⁶ cm/s
  efflux ratio at 2 h, 2 µM: 3.99
BTK L528W; [3]
  BTK degradation rate %: >90%
TMD-8 cells
  IC50: < 0.02 µM

## CN1CCN([C@@H]2CCCN(c3cnc(C(N)=O)c(Nc4ccc(N5CCC6(CC5)CC(CN5CCN7c8cc(F)c(C9CCC(=O)NC9=O)cc8CC[C@H]7C5)C6)cc4)n3)C2)C1=O (some centres unmarked) [Compound 14]
[1]; Vehicle 2
  AUC(0-t): > 1000 ng·h/mL
BTK; [2]
  DC50: < 0.01 µM
Caco2 permeability test
  Papp A→B at 2 h, 2 µM: 0.35 ×10⁻⁶ cm/s
  Papp B→A at 2 h, 2 µM: 0.867 ×10⁻⁶ cm/s
  efflux ratio at 2 h, 2 µM: 2.47

## CN1CCN([C@@H]2CCCN(c3cnc(C(N)=O)c(Nc4ccc(N5CCC(CN6CCN7c8cc(F)c(N9CCC(=O)NC9=O)cc8CC[C@@H]7C6)CC5)cc4)n3)C2)C1=O [Compound 22]
[1]; Vehicle 2
  AUC(0-t): > 1000 ng·h/mL
BTK; [2]
  DC50: < 0.01 µM
Caco2 permeability test
  Papp A→B at 2 h, 2 µM: 2.38 ×10⁻⁶ cm/s
  Papp B→A at 2 h, 2 µM: 4.44 ×10⁻⁶ cm/s
  efflux ratio at 2 h, 2 µM: 1.87

## CN1CCN([C@@H]2CCCN(c3cnc(C(N)=O)c(Nc4ccc(N5CCC6(CC5)CC(N5CCN7c8cc(F)c(C9CCC(=O)NC9=O)cc8CC[C@H]7C5)C6)cc4)n3)C2)C1=O (some centres unmarked) [Compound 31]
BTK; [2]
  DC50: < 0.01 µM

## CN1CCN([C@@H]2CCCN(c3cnc(C(N)=O)c(Nc4ccc(N5CCC6(CC5)CC(N5CCN7c8cc(F)c(C9CCC(=O)NC9=O)cc8CC[C@@H]7C5)C6)cc4)n3)C2)C1=O (some centres unmarked) [Compound 32]
BTK; [2]
  DC50: < 0.01 µM

## CN1CCN([C@@H]2CCCN(c3cnc(C(N)=O)c(Nc4ccc(N5CCC6(CC5)CC(N5CCN7c8cc(F)c(C(=O)N[C@H]9CCC(=O)NC9=O)cc8CC[C@H]7C5)C6)cc4)n3)C2)C1=O [Compound 34]
BTK
  DC50: < 0.01 µM
BTK L528W
  BTK degradation rate %: >90%

## CN1CCN([C@@H]2CCCN(c3nnc(C(N)=O)c(Nc4ccc(N5CCC(CN6CCN7c8cc(F)c(C(=O)N[C@H]9CCC(=O)NC9=O)cc8CC[C@@H]7C6)CC5)cc4)n3)C2)C1=O [Compound 47]
BTK
  DC50: < 0.01 µM
BTK L528W
  BTK degradation rate %: >90%

## CN1CCN([C@@H]2CCCN(c3cnc(C(N)=O)c(Nc4ccc(N5CCC6(CC5)CC(CN5CCN7c8cc(F)c(C(=O)N[C@H]9CCC(=O)NC9=O)cc8CC[C@@H]7C5)C6)cc4)n3)C2)C1=O [Compound 50]
BTK
  DC50: < 0.01 µM

## [2H]C([2H])([2H])N1CCN([C@@H]2CCCN(c3nnc(C(N)=O)c(Nc4ccc(N5CCC(CN6CCN7c8cc(F)c(C(=O)N[C@H]9CCC(=O)NC9=O)cc8CC[C@@H]7C6)CC5)cc4)n3)C2)C1=O [Compound 61]
BTK
  DC50: < 0.01 µM
BTK L528W
  BTK degradation rate %: >90%

## [2H]C([2H])([2H])N1CCN([C@@H]2CCCN(c3cnc(C(N)=O)c(Nc4ccc(N5CCC(CN6CCN7c8cc(F)c(N9CCC(=O)NC9=O)cc8CC[C@@H]7C6)CC5)cc4)n3)C2)C1=O [Compound 66]
BTK
  DC50: < 0.01 µM
BTK L528W
  BTK degradation rate %: >80%

## [2H]C([2H])([2H])N1CCN([C@@H]2CCCN(c3cnc(C(N)=O)c(Nc4ccc(N5CCC(CN6CCN7c8cc(F)c(C(=O)N[C@H]9CCC(=O)NC9=O)cc8CC[C@H]7C6)CC5)cc4)n3)C2)C1=O [Compound 67]
BTK
  DC50: < 0.01 µM
BTK L528W
  BTK degradation rate %: >90%

## [2H]C([2H])([2H])N1CCN([C@@H]2CCCN(c3cnc(C(N)=O)c(Nc4ccc(N5CCC(CN6CCN7c8cc(F)c(C(=O)N[C@H]9CCC(=O)NC9=O)cc8CC[C@@H]7C6)CC5)cc4)n3)C2)C1=O [Compound 68]
BTK
  DC50: < 0.01 µM
BTK L528W
  BTK degradation rate %: >90%

## CN1CCN([C@@H]2CCCN(c3nnc(C(N)=O)c(Nc4ccc(N5CCC(CN6CCN7c8cc(F)c(C9CCC(=O)NC9=O)cc8CC[C@@H]7C6)CC5)c(F)c4)n3)C2)C1=O (some centres unmarked) [Compound 77]
[1]; Vehicle 2
  AUC(0-t): > 1000 ng·h/mL
Caco2 permeability test
  Papp A→B at 2 h, 2 µM: 0.984 ×10⁻⁶ cm/s
  Papp B→A at 2 h, 2 µM: 4.89 ×10⁻⁶ cm/s
  efflux ratio at 2 h, 2 µM: 4.97
BTK L528W; [3]
  BTK degradation rate %: >90%

## COCCN1CCN([C@@H]2CCCN(c3nnc(C(N)=O)c(Nc4ccc(N5CCC(CN6CCN7c8cc(F)c(C9CCC(=O)NC9=O)cc8CC[C@H]7C6)CC5)cc4)n3)C2)C1=O (some centres unmarked) [Compound 82]
BTK L528W; [3]
  BTK degradation rate %: >85%

## COCCN1CCN([C@@H]2CCCN(c3nnc(C(N)=O)c(Nc4ccc(N5CCC(CN6CCN7c8cc(F)c(C9CCC(=O)NC9=O)cc8CC[C@H]7C6)CC5)c(F)c4)n3)C2)C1=O (some centres unmarked) [Compound 83]
BTK L528W; [3]
  BTK degradation rate %: >85%

## COCCN1CCN([C@@H]2CCCN(c3cnc(C(N)=O)c(Nc4ccc(N5CCC(CN6CCN7c8cc(F)c(C9CCC(=O)NC9=O)cc8CC[C@H]7C6)CC5)cc4)n3)C2)C1=O (some centres unmarked) [Compound 84]
BTK L528W; [3]
  BTK degradation rate %: >70%

## NC(=O)c1nnc(N2CCC[C@@H](N3CCN(C4CC4)C3=O)C2)nc1Nc1ccc(N2CCC(CN3CCN4c5cc(F)c(C6CCC(=O)NC6=O)cc5CC[C@H]4C3)CC2)cc1 (some centres unmarked) [Compound 89]
BTK L528W; [3]
  BTK degradation rate %: >80%

## CN1CCN([C@@H]2CCCN(c3cnc(C(N)=O)c(Nc4ccc(C5CCN(CC6CCN(c7ccc(C(=O)N[C@H]8CCC(=O)NC8=O)nc7)CC6)CC5)cc4)n3)C2)C1=O [Control compound 1, reference compound]
Caco2 permeability test
  Papp A→B at 2 h, 2 µM: 0.101 ×10⁻⁶ cm/s
  Papp B→A at 2 h, 2 µM: 5.27 ×10⁻⁶ cm/s
  efflux ratio at 2 h, 2 µM: 52.5

## CN1CCN([C@@H]2CCCN(c3cnc(C(N)=O)c(Nc4ccc(N5CCC(N6CCN7c8cc(F)c(C(=O)N[C@H]9CCC(=O)NC9=O)cc8CC[C@H]7C6)CC5)cc4)n3)C2)C1=O [Trifluoroacetate of compound 36]
BTK
  DC50: < 0.01 µM

## NC(=O)c1nnc(N2CCC[C@@H](N3CCN(CC4CC4)C3=O)C2)nc1Nc1ccc(N2CCC(CN3CCN4c5cc(F)c(C6CCC(=O)NC6=O)cc5CC[C@H]4C3)CC2)cc1 (some centres unmarked) [Trifluoroacetate of compound 93]
BTK L528W; [3]
  BTK degradation rate %: >70%
